Consider twelve compounds from patent publication US20110178143A1, “THERAPEUTIC COMPOUNDS” (ALLERGAN, INC., priority 2007, published 2011).

Like-named read-outs stand apart in the source and are kept apart here.

The target of test [1] is T1, alpha2B receptor (Homo sapiens, UniProt P18089).
T1 construct: expressed in transfected cells; host or cells: NIH-3T3 cells
T1 sequence (P18089 1-450): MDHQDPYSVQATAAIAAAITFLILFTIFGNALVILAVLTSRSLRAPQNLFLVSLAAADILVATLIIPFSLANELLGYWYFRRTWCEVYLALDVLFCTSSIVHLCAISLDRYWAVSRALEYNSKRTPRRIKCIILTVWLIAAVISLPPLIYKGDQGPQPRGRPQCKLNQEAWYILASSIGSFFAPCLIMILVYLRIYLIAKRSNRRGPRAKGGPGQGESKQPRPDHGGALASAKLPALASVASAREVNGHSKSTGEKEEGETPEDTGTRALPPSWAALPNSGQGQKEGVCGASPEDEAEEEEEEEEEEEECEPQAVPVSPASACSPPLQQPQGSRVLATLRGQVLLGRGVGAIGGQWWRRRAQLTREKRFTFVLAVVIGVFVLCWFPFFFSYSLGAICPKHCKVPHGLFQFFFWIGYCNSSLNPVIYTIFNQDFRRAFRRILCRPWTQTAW
Nature of the test: Receptor Selection and Amplification Technology (RSAT) assay, alpha 2B. Particulars: for Emax: read-out: Alpha 2B intrinsic activity (IA), in parentheses. In kind it is cell-based. The procedure: (§1) Receptor Selection and Amplification Technology (RSAT) Assay
(§2) The RSAT assay measures a receptor-mediated loss of contact inhibition that results in selective proliferation of receptor-containing cells in a mixed population of confluent cells. The increase in cell number is assessed with an appropriate transfected marker gene such as β-galactosidase, the activity of which can be easily measured in a 96-well format. Receptors that activate the G protein, Gq, elicit this response. Alpha2 receptors, which normally couple to Gi, activate the RSAT response when coexpressed with a hybrid Gq protein that has a Gi receptor recognition domain, called Gq/i5.
(§3) NIH-3T3 cells are plated at a density of 2×10^6 cells in 15 cm dishes and maintained in Dulbecco's modified Eagle's medium supplemented with 10% calf serum. One day later, cells are cotransfected by calcium phosphate precipitation with mammalian expression plasmids encoding p-SV-β-galactosidase (5-10 μg), receptor (1-2 μg) and G protein (1-2 μg). 40 μg salmon sperm DNA may also be included in the transfection mixture. Fresh media is added on the following day and 1-2 days later, cells are harvested and frozen in 50 assay aliquots. Cells are thawed and 100 μl added to 100 μl aliquots of various concentrations of drugs in triplicate in 96-well dishes. Incubations continue 72-96 hr at 37° C. After washing with phosphate-buffered saline, β-galactosidase enzyme activity is determined by adding 200 μl of the chromogenic substrate (consisting of 3.5 mM o-nitrophenyl-β-D-galactopyranoside and 0.5% nonidet P-40 in phosphate buffered saline), incubating overnight at 30° C. and measuring optical density at 420 nm. The absorbance is a measure of enzyme activity, which depends on cell number and reflects a receptor-mediated cell proliferation. The efficacy or intrinsic activity is calculated as a ratio of the maximal effect of the drug to the maximal effect of a standard full agonist for each receptor subtype. Brimonidine, also called UK14304, the chemical structure of which is shown below, is used as the standard agonist for the alpha2A, alpha2B and alpha2c receptors. The EC50 is the concentration at which the drug effect is half of its maximal effect.
(§4) EC50 values are nanomolar. ND stands for “not determinable” at concentrations less than 10 micromolar. IA stands for “intrinsic activity.”

In test [2] the target is T2, alpha2C receptor (Homo sapiens, UniProt P18825).
T2 construct: expressed in transfected cells; host or cells: NIH-3T3 cells
T2 sequence (P18825 1-462): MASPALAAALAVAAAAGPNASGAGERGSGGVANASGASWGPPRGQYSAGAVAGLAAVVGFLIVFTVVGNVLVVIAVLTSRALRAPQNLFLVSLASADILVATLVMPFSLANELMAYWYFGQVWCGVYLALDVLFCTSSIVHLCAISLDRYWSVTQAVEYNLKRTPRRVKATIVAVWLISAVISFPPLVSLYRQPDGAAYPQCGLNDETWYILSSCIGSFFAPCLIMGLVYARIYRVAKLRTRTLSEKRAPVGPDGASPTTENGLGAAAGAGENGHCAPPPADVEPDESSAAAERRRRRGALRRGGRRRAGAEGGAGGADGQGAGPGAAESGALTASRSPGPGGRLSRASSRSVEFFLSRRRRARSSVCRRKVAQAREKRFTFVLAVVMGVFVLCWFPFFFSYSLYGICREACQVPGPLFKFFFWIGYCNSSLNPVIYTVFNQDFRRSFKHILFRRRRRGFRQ
Nature of the test: Receptor Selection and Amplification Technology (RSAT) assay, alpha 2C. Type of test: cell-based. The following applies: for Emax: RSAT, maximal effect relative to standard full agonist brimonidine (UK14304), read-out: Alpha 2C intrinsic activity (IA), in parentheses. The procedure:
as §1, §2, §3, §4

In test [3] the target is T3, alpha2A receptor (Homo sapiens, UniProt P08913).
T3 sequence (P08913 1-465): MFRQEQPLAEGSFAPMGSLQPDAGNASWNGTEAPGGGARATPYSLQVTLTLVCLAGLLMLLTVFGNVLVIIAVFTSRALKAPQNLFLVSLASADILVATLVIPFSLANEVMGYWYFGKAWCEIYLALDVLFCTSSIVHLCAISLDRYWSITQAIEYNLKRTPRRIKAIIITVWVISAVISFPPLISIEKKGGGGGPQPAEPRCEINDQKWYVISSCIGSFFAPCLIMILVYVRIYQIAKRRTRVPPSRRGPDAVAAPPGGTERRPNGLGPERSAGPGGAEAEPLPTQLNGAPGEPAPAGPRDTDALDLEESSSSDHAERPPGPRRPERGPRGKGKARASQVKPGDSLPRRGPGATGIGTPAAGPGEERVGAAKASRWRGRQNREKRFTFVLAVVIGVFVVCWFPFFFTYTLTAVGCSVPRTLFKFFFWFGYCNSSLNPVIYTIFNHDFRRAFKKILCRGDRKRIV
Nature of the test: cell-based. Particulars: for Emax: read-out: Alpha 2A intrinsic activity (IA), in parentheses.
Description: NIH-3T3 cells are plated at a density of 2×10^6 cells in 15 cm dishes and maintained in Dulbecco's modified Eagle's medium supplemented with 10% calf serum. One day later, cells are cotransfected by calcium phosphate precipitation with mammalian expression plasmids encoding p-SV-β-galactosidase (5-10 μg), receptor (1-2 μg) and G protein (1-2 μg). 40 μg salmon sperm DNA may also be included in the transfection mixture. Fresh media is added on the following day and 1-2 days later, cells are harvested and frozen in 50 assay aliquots. Cells are thawed and 100 μl added to 100 μl aliquots of various concentrations of drugs in triplicate in 96-well dishes. Incubations continue 72-96 hr at 37° C. After washing with phosphate-buffered saline, β-galactosidase enzyme activity is determined by adding 200 μl of the chromogenic substrate (consisting of 3.5 mM o-nitrophenyl-β-D-galactopyranoside and 0.5% nonidet P-40 in phosphate buffered saline), incubating overnight at 30° C. and measuring optical density at 420 nm. The absorbance is a measure of enzyme activity, which depends on cell number and reflects a receptor-mediated cell proliferation. The efficacy or intrinsic activity is calculated as a ratio of the maximal effect of the drug to the maximal effect of a standard full agonist for each receptor subtype. […] The EC50 is the concentration at which the drug effect is half of its maximal effect.

The mark [4] stands for this setting: RSAT in transfected NIH-3T3 cells, nd = not determinable at concentrations less than 10 micromolar, read-out: Alpha 2B EC50.
Setting [5] is: RSAT in transfected NIH-3T3 cells, nd = not determinable at concentrations less than 10 micromolar, read-out: Alpha 2C EC50.

Regarding `Cc1ccc2c(c1)C(NC1=NCCN1)CC2` (stereo not shown), the EC50 in test [1] (setting [4]) turned out to be 473 nM. The Emax was 34% in test [1], 7% in test [2] and 7% in test [3].

Consider `CC1CC(NC2=NCCS2)c2ccccc21` (stereo not shown), for which the figures for the EC50 in test [1], in test [2] and in test [3] were 10 nM, 86 nM and 180 nM, respectively. In addition, the Emax in test [1] came to 99%; in test [2], 41%; in test [3] it was 25%.

With `Cc1cccc2c1CC[C@@H]2NC1=NCCS1`, the EC50 in test [1] (setting [4]) is 3.4 nM; in test [2] (setting [5]), 23 nM; in test [3], 143 nM. The Emax in test [1] was found to be 138%; in test [2], 96%; in test [3] it was 57%.

Consider `c1ccc2c(c1)CCC2NC1=NCCN1` (stereo not shown), for which the concentration for a half-maximal effect (EC50) in test [1] amounted to 17 nM; in test [2] (setting [5]), 207 nM. Moreover, the Emax stood at 93% in test [1], 46% in test [2] and 3% in test [3].

As for `c1ccc2c(c1)CC(NC1=NCCN1)C2`, the half-maximal effective concentration (EC50) in test [1] (setting [4]) amounted to 61 nM. For the same compound, the values for the Emax in test [1], in test [2] and in test [3] were 36%, 5% and 5%, respectively.

On to `c1ccc2c(c1)CCC2NC1=NCCS1` (stereo not shown), for which the values for the EC50 in test [1] and in test [2] were 7.5 nM and 54 nM, respectively. Further, the Emax in test [1] was found to be 107%; in test [2] it was 102%; in test [3] it was 14%.

For the compound `c1ccc2c(c1)CC[C@@H]2NC1=NCCN1`, in test [1], the 50% effective concentration (EC50) came out at 43 nM. Moreover, the Emax in test [1] amounted to 82%; in test [2] it was 11%; in test [3], 4%.

`Cc1cccc2c1CC[C@H]2NC1=NCCN1` came in with an EC50 in test [1] of 33.4 nM. Further, the Emax was found to be 106% in test [1], 11% in test [2] and 11% in test [3].

With `Brc1cccc2c1CCC2NC1=NCCN1` (stereo not shown), the response in test [1] was half-maximal at 12.2 nM (EC50). Further, the Emax in test [1] turned out to be 71%; in test [2], 12%; in test [3], 7%.

As for `Cc1cccc2c1CCC2NC1=NCCN1` (stereo not shown), the results for the 50% effective concentration (EC50) in test [1] and in test [2] (setting [5]) were 5.7 nM and 429 nM, respectively. Besides, the figures for the Emax in test [1], in test [2] and in test [3] were 98%, 38% and 20%, respectively.

Take `CC1CC(NC2=NCCO2)c2ccccc21` (stereo not shown): the EC50 is 2.2 nM in test [1] (setting [4]), 19.8 nM in test [2] (setting [5]) and 7 nM in test [3]. Besides, the values for the Emax in test [1], in test [2] and in test [3] were 112%, 50% and 25%, respectively.

Turning to `Cc1cccc2c1CC[C@@H]2NC1=NCCN1`, the EC50 in test [1] worked out at 4.5 nM; in test [2], 82 nM. For the same compound, the figures for the Emax in test [1], in test [2] and in test [3] were 125%, 62% and 16%, respectively.
